How the values were obtained:
Assay in all cases: relative viability (nuclei count vs DMSO), 5 days (fraction); higher = more cells survive
[1] = compound: CC1=C(C(=O)N2C=CSC2=N1)CCN3CCC(=C(C4=CC=CC=C4)C5=CC=C(C=C5)F)CC3 + C[C@@H](Oc1cc(-c2cnn(C3CCNCC3)c2)cnc1N)c1c(Cl)ccc(F)c1Cl [Crizotinib] (partner 1 µM)
In short: (§1)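 Lung cancer cell lines in 1536-well plates were dosed by pin tool the day after seeding, either with one drug alone or with a fixed anchor-drug dose plus five library-drug doses (not always all listed) in √10 steps. After 5 days, cells were fixed and their nuclei stained in one step (final 0.05% Triton X-100, 1% formaldehyde, 1 ug/ml Hoechst), then counted on 4× images. Relative viability is the nuclei count in treated wells divided by that in vehicle wells. Values are medians of duplicate plates.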

[2] = compound: CC1=C(C(=O)N2C=CSC2=N1)CCN3CCC(=C(C4=CC=CC=C4)C5=CC=C(C=C5)F)CC3 + O=C(CCCCCCC(=O)Nc1ccccc1)NO [Vorinostat] (partner 1 µM)
In short: as §1

[3] = compound: CC1=C(C(=O)N2C=CSC2=N1)CCN3CCC(=C(C4=CC=CC=C4)C5=CC=C(C=C5)F)CC3 + Cc1cc(Nc2cc(N3CCN(C)CC3)nc(Sc3ccc(NC(=O)C4CC4)cc3)n2)n[nH]1 [Tozasertib] (partner 0.1 µM)
In short: as §1

[4] = compound: CC1=C(C(=O)N2C=CSC2=N1)CCN3CCC(=C(C4=CC=CC=C4)C5=CC=C(C=C5)F)CC3 + CC1(C)CCC(c2ccc(Cl)cc2)=C(CN2CCN(c3ccc(C(=O)NS(=O)(=O)c4ccc(N[C@H](CCN5CCOCC5)CSc5ccccc5)c(S(=O)(=O)C(F)(F)F)c4)cc3)CC2)C1 [Navitoclax] (partner 0.5 µM)
In short: as §1

Cell Line	relative viability ([1]; first compound 0.08 µM)	relative viability ([1]; first compound 0.253 µM)	relative viability ([1]; first compound 0.8 µM)	relative viability ([1]; first compound 2.53 µM)	relative viability ([1]; first compound 8 µM)	relative viability ([2]; first compound 0.08 µM)	relative viability ([2]; first compound 0.253 µM)	relative viability ([2]; first compound 0.8 µM)	relative viability ([2]; first compound 2.53 µM)	relative viability ([2]; first compound 8 µM)	relative viability ([3]; first compound 0.08 µM)	relative viability ([3]; first compound 0.253 µM)	relative viability ([3]; first compound 0.8 µM)	relative viability ([3]; first compound 2.53 µM)	relative viability ([3]; first compound 8 µM)	relative viability ([4]; first compound 0.08 µM)	relative viability ([4]; first compound 0.253 µM)	relative viability ([4]; first compound 0.8 µM)	relative viability ([4]; first compound 2.53 µM)	relative viability ([4]; first compound 8 µM)
COR-L23	0.503	0.758	0.608	0.649	0.419	0.438	0.365	0.46	0.421	0.405	0.18	0.164	0.169	0.214	0.184	0.895	1.06	1.04	1.47	0.525
LK-2	0.291	0.234	0.202	0.293	0.29	0.266	0.233	0.333	0.319	0.199	0.176	0.188	0.172	0.161	0.174	0.741	0.962	1.11	1.05	0.703
CAL-12T	0.694	0.829	0.657	0.741	0.46	0.566	0.728	0.727	0.957	0.513	0.316	0.304	0.311	0.302	0.255	1.21	1.34	1.26	1.33	1.2
NCI-H1437	–	0.902	0.978	1.03	0.604	0.702	0.867	0.901	0.9	0.386	0.399	0.35	0.433	0.43	0.36	–	0.924	1.09	1.44	0.693
NCI-H23	0.467	0.505	0.454	0.372	0.404	0.665	0.564	0.473	0.572	0.32	0.365	0.386	0.214	0.307	0.316	0.722	0.862	0.776	0.863	0.489
NCI-H727	0.846	0.934	0.741	0.948	0.59	1.08	1.3	1.16	1.13	1.07	0.511	0.589	0.625	0.739	0.598	0.346	0.481	0.444	0.48	0.383
NCI-H1915	0.953	1.01	0.957	0.862	0.521	0.554	0.584	0.538	0.524	0.383	0.438	0.442	0.444	0.432	0.318	0.741	0.691	0.832	0.807	0.725
NCI-H1648	–	–	–	–	–	0.26	0.36	0.603	0.4	0.338	0.391	–	–	0.392	0.525	–	–	–	–	–
NCI-H3122	0.286	0.262	0.258	0.316	0.267	0.875	1.1	1.08	0.987	0.516	0.315	0.351	0.392	0.491	0.324	1.11	1.04	1.03	1.04	0.965
HCC-827	0.898	0.924	0.911	0.98	0.946	0.831	0.655	0.797	0.953	0.688	0.43	0.396	0.389	0.472	0.399	1.06	1.1	1.01	1.07	0.946
EMC-BAC-2	0.725	0.801	0.696	0.766	0.676	0.416	–	0.343	0.398	0.377	0.192	0.278	0.275	0.278	0.261	0.906	0.95	1.28	1.16	0.707
NCI-H522	–	–	–	–	–	0.69	0.86	1.03	1.08	0.736	0.551	0.92	0.555	0.523	0.583	–	–	–	–	–
NCI-H2009	1.25	1.12	0.968	1.14	1.11	0.71	0.715	0.728	0.778	0.556	0.775	0.668	0.738	0.756	0.478	1.15	1.14	1.18	1.22	1.09
SK-LU-1	1.03	0.849	0.801	0.979	0.698	0.773	0.708	0.75	0.783	0.713	0.307	0.286	0.288	0.283	0.295	0.586	0.899	0.941	0.913	0.371
LU99A	0.602	0.636	0.558	0.625	0.444	0.433	0.418	0.381	0.525	0.207	0.299	0.272	0.268	0.307	0.197	0.919	0.867	0.734	0.929	0.631
NCI-H1793	–	–	–	–	–	0.599	0.988	0.577	0.891	0.535	0.354	0.339	0.312	0.362	0.258	0.376	0.512	0.395	0.507	0.374
LC-2-ad	0.46	0.342	0.415	0.522	0.475	0.661	0.517	0.771	0.748	0.53	0.489	0.487	0.468	0.425	0.418	0.384	0.393	0.489	0.5	0.335
IA-LM	–	0.713	1.09	0.944	0.502	0.524	0.895	1.01	0.756	0.417	–	–	–	–	–	0.841	0.7	0.823	0.884	0.523
